Reference: patent US9241951B2, “Of gastrointestinal health, immunity and performance by dietary intervention” (BIOATLANTIS LTD, priority 2009, dated 2016)

Key:
Assay type in all cases: in vivo, pig
[1] = system: Bifidobacteria; assay: Microbial analysis of ileum and colon digesta, Example 5; conditions: ileum; LAM 0-600 ppm
Description: (§1) 21 pigs with an initial weight of 17.9±2.2 Kg were assigned to one of the 3 dietary treatments: (T1) control; (T2) basal diet+300 ppm LAM; (T3) basal diet+600 ppm LAM. Experimental feeding continued for 21 days ad libitum. Diets were formulated to have similar digestible energy (DE) (14.4 MJ/Kg) and ileal digestible lysine (12.5 g/Kg). Post-slaughter, digestive tract was removed by dissection and digesta was removed from the ileum. Each digesta sample was serially diluted in maximum recovery diluent (MRD, Oxoid, Basingstoke, UK), and spread plated onto selective agars. Bifidobacteria, Lactobacilli and Enterobacteria species were isolated according to the methods described by Pierce et al. (2005). Digesta samples used to measure VFA concentration were collected from the caecum and the same location in the ileum and colon. VFA analysis was performed using gas liquid chromatography (GLC) according to the method described by Pierce et al., (2005).

[2] = system: Enterobacteriaceae; assay: as above
Description: as §1

[3] = system: Lactobacilli; assay: as above; conditions: ileum; LAM 0-600 ppm
Description: as §1

[4] = system: IFN-γ; assay: Cytokine gene expression in unchallenged ileum and colon tissue (qPCR), Example 5; conditions: unchallenged ileum or colon tissue; LAM 300, 600 ppm
Protocol: (§2) 21 pigs with an initial weight of 17.9±2.2 Kg were assigned to one of the 3 dietary treatments: (T1) control; (T2) basal diet+300 ppm LAM; (T3) basal diet+600 ppm LAM. Experimental feeding continued for 21 days ad libitum. Diets were formulated to have similar digestible energy (DE) (14.4 MJ/Kg) and ileal digestible lysine (12.5 g/Kg).
(§3) Ileal and colonic tissues was stabilised in RNAlater® solution and stored overnight at 4° C. The following day, RNAlater® was removed and samples were stored at −86° C. prior to RNA extraction.
(§4) Tissue samples for RNA extraction were removed from −86° C. and homogenised. 500 μl of lysis solution/2-ME was added to each sample and these were mechanically disrupted using one 5 mm stainless steel bead per sample. These were then placed in a Tissue Lyser (Qiagen) and lysates were homogenised for 3 mins and transferred to a GenElute Filtration Column (Sigma Aldrich) and RNA was extracted. 1 µg of total RNA was used for cDNA synthesis using oligo(dT)20 primer in a final reaction volume of 20 μl with Superscript™ III First-Strand synthesis system for reverse transcriptase-polymerase chain reaction (RT-PCR) (Invitrogen Life Technologies, Carlsbad, Calif.). At the last step of cDNA synthesis, treatment with E. coli RNase H (Invitrogen Corp.) was performed to digest the remaining RNA/mRNA template, resulting in the production of the single-stranded cDNA template for subsequent qRT-PCR reactions.
(§5) All porcine primers for the cytokine genes interferon gamma (IFN-γ), interleukin-1α (IL-1α), IL-6, IL-8, IL-10, IL-17, tumour necrosis factor (TNF-α), the mucin genes (MUCs 1, 2, 4, 5AC, 12, 13 and 20) and three reference genes, β-actin (ACTB), Glyceraldehyde-3-phosphate dehydrogenase (GAPDH) and Peptidylprolyl isomerase A (PPIA), were designed using Primer Express™ (PE Applied Biosystems, Foster City, Calif.) and synthesised by MWG Biotech (Milton Keynes, UK). These reference genes were previously validated for use in porcine tissue and qPCR was then carried out on the cDNA using the ABI PRISM 7900HT Fast sequence detection system for 96-well plates (Applied Biosystems, Foster City, Calif.). All samples were prepared in duplicate using SYBR Green Fast PCR Master Mix (Applied Biosystems, Foster City, Calif.), cDNA as template and specific primers for the genes selected. For each reaction 5 μl cDNA, 1.2 μl (forward and reverse primer mix, 5 μM), 10 μl Fast SYBR Green PCR Master Mix (PE Applied Biosystems, Foster City, Calif.) was added and made up to a final volume of 20 μl. The two step PCR program was as follows: 95° C. for 10 minutes for 1 cycle followed by 95° C. for 15 seconds and 60° C. for 1 minute for 40 cycles. The raw Ct values for the reference genes were converted to relative quantities using the formula Q=E ^ΔCt where E is the PCR efficiency of the assay and ^ΔCt is the value calculated for the difference between the lowest Ct value for each gene minus the Ct value of the sample in question. The relative quantities of the endogenous controls were then analysed for stability in geNorm (Vandesompele et al., 2002). The stability ‘M’ value generated by the geNorm application for the selected endogenous controls (ACTB, GAPDH and PPIA) indicated their suitability as endogenous controls for these intestinal samples. The geometric mean of the relative quantities for ACTB, GAPDH and PPIA (normalisation factor) was then calculated using geNorm. The relative quantities of each target gene were divided by the normalisation factor (obtained in geNorm) for that sample to give the final normalised relative expression.

[5] = system: IL-10; assay: as above; conditions: unchallenged ileum or colon tissue; LAM 300, 600 ppm
Protocol: as §2, §3, §4, §5

[6] = system: IL-17; assay: as above; conditions: unchallenged ileum or colon tissue; LAM 300, 600 ppm
Protocol: as §2, §3, §4, §5

[7] = system: IL-1α; assay: as above; conditions: unchallenged ileum or colon tissue; LAM 300, 600 ppm
Protocol: as §2, §3, §4, §5

[8] = system: IL-6; assay: as above; conditions: unchallenged ileum or colon tissue; LAM 300, 600 ppm
Protocol: as §2, §3, §4, §5

[9] = system: IL-8; assay: as above; conditions: unchallenged ileum or colon tissue; LAM 300, 600 ppm
Protocol: as §2, §3, §4, §5

[10] = system: TNF-α; assay: as above; conditions: unchallenged ileum or colon tissue; LAM 300, 600 ppm
Protocol: as §2, §3, §4, §5

## laminarin
[1]
  Bifidobacteria populations: no effect
[2]; colon, LAM from Laminaria digitata, 300 and 600 ppm
  Enterobacteriaceae: decrease
[2]; ileum, LAM 0-600 ppm
  Enterobacteriaceae populations: no effect
[3]
  Lactobacilli populations: no effect
[4]
  IFN-γ gene expression: no effects
[5]
  IL-10 gene expression: no effects
[6]
  IL-17 gene expression: no effects
[7]
  IL-1α gene expression: no effects
[8]
  IL-6 gene expression: no effects
[9]
  IL-8 gene expression: no effects
[10]
  TNF-α gene expression: no effects
